Measured values from US5135928A, “Triazolo derivatives and process for their preparation” (Egis Gyogyszergyar, priority 1989, dated 1992).

How the values were obtained:
mice = assay: Hexobarbital narcosis on mice; format: in vivo; conditions: oral; for ED50: Mus musculus, 1 hour before Hexobarbital 40 mg/kg i.v., positive = sleeping time more than 2.5 times longer than control; for Therapeutical index: Hexobarbital narcosis
Method: 1. Hexobarbital narcosis on mice
Method: Kaergaard, Arch. Int. Pharmacodyn. 2, 170, (1967)
Groups consisting of 6 mice are used for each dose. The animals are treated orally with the test compound (the control group receives a vehicle), whereby sleeping is induced 1 hour later by administering a 40 mg/kg i.v. dose of Hexobarbital both to the test and control groups.
Animals which have a sleeping time more than 2.5 times longer than that of the control group are considered to show a positive reaction. ED50 values are calculated from the thus-transformed data.

rats = assay: Antianginal effect (vasopressin-induced experimental coronaria insufficiency, height of wave T in ECG); format: in vivo; conditions: Rattus norvegicus, iv, 2 minutes prior to vasopressin i.v.; narcotised male rats 180-220 g
Method: Male rats of 180-220 g body weight were narcotised with chloralese-urethane(70/700 mg/kg ip.). The ECG was registered with needle electrodes in standard II leading. The experimental coronaria insufficiency was induced with vasopressin (4 NE/kg i.v.). The height of wave T in ECG was measured before and after the administration of vasopressin in both the control and treated groups. Test compounds were administered intravenously 2 minutes prior to the treatment with vasopressin.

Work on `CN(N=Cc1c(Cl)cccc1Cl)C(=S)n1nc(N2CCOCC2)nc1N` [Example 5, 1-(5-Amino-3-morpholino-1H-1,2,4-triazol-1-yl)-N-methyl-N'-(2,6-dichlorobenzylidene)carbothiohydrazide] yielded an ED50 (mice) of 36 mg/kg and a Therapeutical index (mice) of 27.8.
For `CN(N=Cc1ccc(OCC(N)=O)cc1)C(=S)n1nc(N2CCOCC2)nc1N` [Example 7, 1-(5-Amino-3-morpholino-1H-1,2,4-triazol-1-yl)-N-methyl-N'-(4-carbamoylmethoxybenzylidene)carbothiohydrazide], the ED50 (mice) was 110 mg/kg and the Therapeutical index (mice) was 9.1.
`COc1cc(C=NN(C)C(=S)n2nc(SC)nc2N)ccc1O` [Example 22, 1-(5-Amino-3-methylthio-1H-1,2,4-triazol-1-yl)-N-methyl-N'-(4-hydroxy-3-methoxybenzylidene)carbothiohydrazide] gave an ED50 (mice) of 110 mg/kg and a Therapeutical index (mice) of 5.1.
In the case of `CC1Nc2nc(N3CCOCC3)nn2C(=S)N(C)N1` (centres unmarked) [Example 41, 6,8-Dimethyl-2-morpholino-5,6,8,9-tetrahydro[1,2,4]-triazolo-[1,5-d][1,2,4,6]tetrazepine-5(7H)-thione], the ED50 (mice) is reported as 200 mg/kg and the Therapeutical index (mice) is reported as 10.0.
`CSc1nc2n(n1)C(=S)N(C)NC1(CCCCC1)N2` [Example 47, 6-Methyl-2-methylthio-5,6,8,9-tetrahydro[1,2,4]-triazolo[1,5-d][1,2,4,6]tetrazepine-5(7H)-thione-8-spiro-1'-cyclohexane] showed an ED50 (mice) of 200 mg/kg and a Therapeutical index (mice) of 10.0.
With `CN1NC2(CCCC2)Nc2nc(N3CCOCC3)nn2C1=S` [Example 48, 6-Methyl-2-morpholino-5,6,8,9-tetrahydro[1,2,4]-triazolo[1,5-d][1,2,4,6]tetrazepine-5(7H)-thione-8-spiro-1'-cyclopentane] the ED50 (rats) was 1.35 mg/kg.
`CN1NC2(CCCCCCCCCCC2)Nc2nc(N3CCOCC3)nn2C1=S` [Example 53, 6-Methyl-2-morpholino-5,6,8,9-tetrahydro-1,2,4-triazolo[1,5-d][1,2,4,6]tetrazepine-5(7H)-thione-8-spiro-1'-cyclododecane] was tested, and the ED50 (mice) was 41 mg/kg, the Therapeutical index (mice) was 48.8 and the ED50 (rats) was 1 mg/kg.
In the case of `COC(=O)CC1(C)Nc2nc(SC)nn2C(=S)N(C)N1` (centres unmarked) [Example 57, 6,8-Dimethyl-8-methoxycarbonyl-methyl-2-methylthio-5,6,8,9tetrahydro[1,2,4]triazolo[1,5-d][1,2,4,6]-tetrazepine-5(7H)-thione], the ED50 (rats) is reported as 1.65 mg/kg.
With `CCOC(=O)CCC1(C)Nc2nc(N3CCOCC3)nn2C(=S)N(C)N1` (centres unmarked) [Example 58, 6,8-Dimethyl-8-(ethoxycarbonyl-ethyl)-2-morpholino-5,6,8,9-tetrahydro[1,2,4]triazolo[1,5-d][1,2,4,6]-tetrazepine-5(7H)-thione] the ED50 (mice) was 160 mg/kg and the Therapeutical index (mice) was 12.5.
Compound `CCCC(C)(COC(N)=O)COC(N)=O` [Meprobamate, reference compound] has an ED50 (mice) of 270 mg/kg and a Therapeutical index (mice) of 4.1.
Compound `CC(Cc1ccccc1)NCCC(c1ccccc1)c1ccccc1` (centres unmarked) [Prenylamine, reference compound] has an ED50 (rats) of 6.5 mg/kg.
